Source: US8124610B2, “Sodium channel inhibitors” (Icagen Inc., priority 2007, dated 2012)

Target: T1, hSCN9A (Homo sapiens, UniProt Q15858)
T1 construct: expressed in transfected cells
Test: Whole-cell patch-clamp electrophysiology (conventional or PatchXpress), HEK cells expressing hSCN9A, estimated IC-50
Format: cell-based
Settings: estimated IC-50, HEK cells expressing hSCN9A; class symbols or bounds; read-out: SCN9A EIC-50
Procedure, shortened: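 Current through each channel was evoked by a 20 ms step to 0 mV following an 8 s conditioning prepulse at the cell's own half-inactivation voltage. Recordings used HEK lines stably expressing the channel, conventional or PatchXpress patch clamp, room temperature, pH 7.4 bath; inhibition taken as pre/post-compound amplitude change.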

T1 sequence (Q15858 whole entry): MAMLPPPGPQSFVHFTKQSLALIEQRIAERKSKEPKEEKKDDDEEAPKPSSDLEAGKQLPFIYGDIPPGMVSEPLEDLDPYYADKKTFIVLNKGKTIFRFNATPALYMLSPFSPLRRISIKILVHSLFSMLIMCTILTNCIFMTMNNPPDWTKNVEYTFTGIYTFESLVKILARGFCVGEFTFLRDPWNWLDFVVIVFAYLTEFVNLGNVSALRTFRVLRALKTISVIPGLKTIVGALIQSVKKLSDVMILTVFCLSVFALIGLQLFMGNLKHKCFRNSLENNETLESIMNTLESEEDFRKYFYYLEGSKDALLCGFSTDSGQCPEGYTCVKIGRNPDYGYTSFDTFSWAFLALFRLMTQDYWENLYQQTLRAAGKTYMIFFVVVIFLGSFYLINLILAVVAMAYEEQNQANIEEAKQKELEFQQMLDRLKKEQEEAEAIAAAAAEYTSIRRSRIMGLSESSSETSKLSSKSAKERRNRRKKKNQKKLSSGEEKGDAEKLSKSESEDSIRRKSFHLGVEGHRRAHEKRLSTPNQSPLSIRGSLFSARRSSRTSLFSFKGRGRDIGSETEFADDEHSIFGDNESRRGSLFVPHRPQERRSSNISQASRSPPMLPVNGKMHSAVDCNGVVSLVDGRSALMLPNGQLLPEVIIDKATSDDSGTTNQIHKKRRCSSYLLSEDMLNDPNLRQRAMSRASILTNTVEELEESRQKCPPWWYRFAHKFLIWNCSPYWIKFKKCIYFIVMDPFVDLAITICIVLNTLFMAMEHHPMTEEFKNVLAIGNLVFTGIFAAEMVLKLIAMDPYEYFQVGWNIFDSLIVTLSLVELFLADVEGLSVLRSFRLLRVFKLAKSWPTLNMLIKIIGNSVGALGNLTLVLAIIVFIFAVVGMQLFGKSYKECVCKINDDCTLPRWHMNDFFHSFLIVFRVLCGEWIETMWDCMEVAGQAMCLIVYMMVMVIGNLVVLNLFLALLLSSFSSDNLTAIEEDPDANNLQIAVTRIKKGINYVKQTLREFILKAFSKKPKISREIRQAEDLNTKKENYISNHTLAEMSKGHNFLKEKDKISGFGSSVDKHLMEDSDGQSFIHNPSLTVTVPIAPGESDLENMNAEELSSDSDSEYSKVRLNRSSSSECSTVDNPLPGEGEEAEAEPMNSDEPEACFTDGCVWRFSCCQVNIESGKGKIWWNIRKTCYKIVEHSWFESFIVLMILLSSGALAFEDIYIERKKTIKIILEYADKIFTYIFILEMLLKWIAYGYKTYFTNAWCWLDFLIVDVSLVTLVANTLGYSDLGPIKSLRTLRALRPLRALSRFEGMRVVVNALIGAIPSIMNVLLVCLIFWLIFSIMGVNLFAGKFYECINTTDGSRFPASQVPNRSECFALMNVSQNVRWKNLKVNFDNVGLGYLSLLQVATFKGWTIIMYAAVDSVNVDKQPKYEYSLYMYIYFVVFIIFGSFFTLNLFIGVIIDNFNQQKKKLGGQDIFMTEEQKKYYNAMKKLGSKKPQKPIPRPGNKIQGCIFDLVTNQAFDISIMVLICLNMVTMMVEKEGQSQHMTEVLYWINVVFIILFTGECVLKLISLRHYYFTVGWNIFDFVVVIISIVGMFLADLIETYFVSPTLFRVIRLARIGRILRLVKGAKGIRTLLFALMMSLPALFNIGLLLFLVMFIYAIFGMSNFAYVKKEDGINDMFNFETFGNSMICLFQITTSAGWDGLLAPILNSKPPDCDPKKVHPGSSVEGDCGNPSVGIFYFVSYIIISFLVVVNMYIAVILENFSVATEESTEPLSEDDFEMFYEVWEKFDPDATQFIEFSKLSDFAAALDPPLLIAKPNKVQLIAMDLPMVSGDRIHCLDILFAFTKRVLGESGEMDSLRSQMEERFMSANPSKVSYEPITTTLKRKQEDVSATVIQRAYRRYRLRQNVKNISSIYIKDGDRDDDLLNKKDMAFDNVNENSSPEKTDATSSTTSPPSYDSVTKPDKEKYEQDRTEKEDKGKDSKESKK

| Compound | IC50 |
| --- | --- |
| O=S(=O)(Nc1nccs1)c1ccc(Nc2cnn(Cc3ccc(Cl)cc3)c2)cn1 [Compound 231, 5-(1-(4-chlorobenzyl)-1H-pyrazol-4-ylamino)-N-(thiazol-2-yl)pyridine-2-sulfonamide] | 2000 to 10000 nM |
| O=S(=O)(Nc1nncs1)c1ccc(Nc2ccn(Cc3ccc(Cl)cc3)n2)cc1F [Compound 232, 4-(1-(4-chlorobenzyl)-1H-pyrazol-3-ylamino)-2-fluoro-N-(1,3,4-thiadiazol-2-yl)benzenesulfonamide] | < 2000 nM |
| Cc1cc(Nc2ccc(S(=O)(=O)Nc3nccs3)nc2)n(-c2ccccc2)n1 [Compound 234, 5-(3-methyl-1-phenyl-1H-pyrazol-5-ylamino)-N-(thiazol-2-yl)pyridine-2-sulfonamide] | 2000 to 10000 nM |
| Cc1cc(Nc2ccc(S(=O)(=O)Nc3nc(C)ns3)c(F)c2)n(-c2ccccc2)n1 [Compound 236, 2-fluoro-N-(3-methyl-1,2,4-thiadiazol-5-yl)-4-(3-methyl-1-phenyl-1H-pyrazol-5-ylamino)benzenesulfonamide] | 2000 to 10000 nM |
| Cc1cc(Nc2ccc(S(=O)(=O)Nc3nnc(C)o3)c(F)c2)n(-c2ccccc2)n1 [Compound 237, 2-fluoro-N-(5-methyl-1,3,4-oxadiazol-2-yl)-4-(3-methyl-1-phenyl-1H-pyrazol-5-ylamino)benzenesulfonamide] | 2000 to 10000 nM |
| Cc1cc(Nc2ccc(S(=O)(=O)Nc3nncs3)c(F)c2)n(-c2ccccc2)n1 [Compound 238, 2-fluoro-4-(3-methyl-1-phenyl-1H-pyrazol-5-ylamino)-N-(1,3,4-thiadiazol-2-yl)benzenesulfonamide] | 2000 to 10000 nM |
| Cc1cc(Nc2ccc(S(=O)(=O)Nc3ncc(C)s3)c(F)c2)n(-c2ccccc2)n1 [Compound 239, 2-fluoro-4-(3-methyl-1-phenyl-1H-pyrazol-5-ylamino)-N-(5-methylthiazol-2-yl)benzenesulfonamide] | 2000 to 10000 nM |
| Cc1cc(Nc2ccc(S(=O)(=O)Nc3ncns3)c(F)c2)n(-c2ccccc2)n1 [Compound 240, 2-fluoro-4-(3-methyl-1-phenyl-1H-pyrazol-5-ylamino)-N-(1,2,4-thiadiazol-5-yl)benzenesulfonamide] | 2000 to 10000 nM |
| Cc1cc(Nc2ccc(S(=O)(=O)Nc3nnc(-c4ccccc4)s3)c(F)c2)n(-c2ccccc2)n1 [Compound 241, 2-fluoro-4-(3-methyl-1-phenyl-1H-pyrazol-5-ylamino)-N-(5-phenyl-1,3,4-thiadiazol-2-yl)benzenesulfonamide] | 2000 to 10000 nM |
| O=S(=O)(Nc1nnc(C(F)(F)F)s1)c1ccc(Nc2ccn(Cc3ccc(Cl)cc3)n2)cc1F [Compound 243, 4-(1-(4-chlorobenzyl)-1H-pyrazol-3-ylamino)-2-fluoro-N-(5-(trifluoromethyl)-1,3,4-thiadiazol-2-yl)benzenesulfonamide] | 2000 to 10000 nM |
| CCc1nnc(NS(=O)(=O)c2ccc(Nc3cc(C)nn3-c3ccccc3)cc2F)s1 [Compound 246, N-(5-ethyl-1,3,4-thiadiazol-2-yl)-2-fluoro-4-(3-methyl-1-phenyl-1H-pyrazol-5-ylamino)benzenesulfonamide] | > 1000 nM |
| Cc1cc(Nc2ccc(S(=O)(=O)Nc3nnc(C)s3)c(F)c2)n(-c2ccccc2)n1 [Compound 247, 2-fluoro-N-(5-methyl-1,3,4-thiadiazol-2-yl)-4-(3-methyl-1-phenyl-1H-pyrazol-5-ylamino)benzenesulfonamide] | > 1000 nM |
| Cc1cc(Nc2ccc(S(=O)(=O)Nc3nnc(C(F)F)s3)c(F)c2)n(-c2ccccc2)n1 [Compound 248, N-(5-(difluoromethyl)-1,3,4-thiadiazol-2-yl)-2-fluoro-4-(3-methyl-1-phenyl-1H-pyrazol-5-ylamino)benzenesulfonamide] | 2000 to 10000 nM |
| COCc1nnc(NS(=O)(=O)c2ccc(Nc3cc(C)nn3-c3ccccc3)cc2F)s1 [Compound 249, 2-fluoro-N-(5-(methoxymethyl)-1,3,4-thiadiazol-2-yl)-4-(3-methyl-1-phenyl-1H-pyrazol-5-ylamino)benzenesulfonamide] | > 1000 nM |
| Cc1cc(Nc2ccc(S(=O)(=O)Nc3nnc(C4CC4)s3)c(F)c2)n(-c2ccccc2)n1 [Compound 250, N-(5-cyclopropyl-1,3,4-thiadiazol-2-yl)-2-fluoro-4-(3-methyl-1-phenyl-1H-pyrazol-5-ylamino)benzenesulfonamide] | > 1000 nM |
| Cc1nnc(NS(=O)(=O)c2ccc(Nc3ccn(Cc4ccc(Cl)cc4)n3)cc2F)s1 [Compound 251, 4-(1-(4-chlorobenzyl)-1H-pyrazol-3-ylamino)-2-fluoro-N-(5-methyl-1,3,4-thiadiazol-2-yl)benzenesulfonamide] | > 1000 nM |
| Cc1cc(Nc2ccc(S(=O)(=O)Nc3nnc(C(C)C)s3)c(F)c2)n(-c2ccccc2)n1 [Compound 252, 2-fluoro-N-(5-isopropyl-1,3,4-thiadiazol-2-yl)-4-(3-methyl-1-phenyl-1H-pyrazol-5-ylamino)benzenesulfonamide] | > 1000 nM |
| O=S(=O)(Nc1nnc(C2CC2)s1)c1ccc(Nc2ccn(Cc3ccc(Cl)cc3)n2)cc1F [Compound 253, 4-(1-(4-chlorobenzyl)-1H-pyrazol-3-ylamino)-N-(5-cyclopropyl-1,3,4-thiadiazol-2-yl)-2-fluorobenzenesulfonamide] | > 1000 nM |

| Compound | IC50 |
| --- | --- |
| COCc1nnc(NS(=O)(=O)c2ccc(Nc3ccn(Cc4ccc(Cl)cc4)n3)cc2F)s1 [Compound 254, 4-(1-(4-chlorobenzyl)-1H-pyrazol-3-ylamino)-2-fluoro-N-(5-(methoxymethyl)-1,3,4-thiadiazol-2-yl)benzenesulfonamide] | > 1000 nM |
| CCc1nnc(NS(=O)(=O)c2ccc(Nc3ccn(Cc4ccc(Cl)cc4)n3)cc2F)s1 [Compound 255, 4-(1-(4-chlorobenzyl)-1H-pyrazol-3-ylamino)-N-(5-ethyl-1,3,4-thiadiazol-2-yl)-2-fluorobenzenesulfonamide] | > 1000 nM |
| CC(C)c1nnc(NS(=O)(=O)c2ccc(Nc3ccn(Cc4ccc(Cl)cc4)n3)cc2F)s1 [Compound 256, 4-(1-(4-chlorobenzyl)-1H-pyrazol-3-ylamino)-2-fluoro-N-(5-isopropyl-1,3,4-thiadiazol-2-yl)benzenesulfonamide] | > 1000 nM |
| O=S(=O)(Nc1nc(C(F)(F)F)cs1)c1ccc(Nc2nc(Cc3ccc(Cl)cc3)cs2)cc1 [Compound 257, 4-(4-(4-chlorobenzyl)thiazol-2-ylamino)-N-(4-(trifluoromethyl)thiazol-2-yl)benzenesulfonamide] | 2000 to 10000 nM |
| O=S(=O)(Nc1nc(C(F)(F)F)co1)c1ccc(Nc2nc(Cc3ccc(Cl)cc3)cs2)cc1 [Compound 258, 4-(4-(4-chlorobenzyl)thiazol-2-ylamino)-N-(4-(trifluoromethyl)oxazol-2-yl)benzenesulfonamide] | > 1000 nM |
| Cc1cccc(NS(=O)(=O)c2ccc(Nc3ccn(Cc4ccc(Cl)cc4)n3)cc2F)n1 [Compound 259, 4-(1-(4-chlorobenzyl)-1H-pyrazol-3-ylamino)-2-fluoro-N-(6-methylpyridin-2-yl)benzenesulfonamide] | > 3000 nM |
| O=S(=O)(Nc1cccnn1)c1ccc(Nc2ccn(Cc3ccc(Cl)cc3)n2)cc1F [Compound 260, 4-(1-(4-chlorobenzyl)-1H-pyrazol-3-ylamino)-2-fluoro-N-(pyridazin-3-yl)benzenesulfonamide] | > 1000 nM |
| Cc1nnc(NS(=O)(=O)c2ccc(Nc3ccn(Cc4ccc(Cl)cc4)n3)cc2F)o1 [Compound 261, 4-(1-(4-chlorobenzyl)-1H-pyrazol-3-ylamino)-2-fluoro-N-(5-methyl-1,3,4-oxadiazol-2-yl)benzenesulfonamide] | > 1000 nM |
| O=S(=O)(Nc1ccncn1)c1ccc(Nc2ccn(Cc3ccc(Cl)cc3)n2)cc1F [Compound 262, 4-(1-(4-chlorobenzyl)-1H-pyrazol-3-ylamino)-2-fluoro-N-(pyrimidin-4-yl)benzenesulfonamide] | 2000 to 10000 nM |
| O=S(=O)(Nc1nncs1)c1ccc(Nc2ccn(Cc3ccc(Cl)cc3)n2)cc1C(F)(F)F [Compound 265, 4-(1-(4-chlorobenzyl)-1H-pyrazol-3-ylamino)-N-(1,3,4-thiadiazol-2-yl)-2-(trifluoromethyl)benzenesulfonamide] | < 2000 nM |
| Cc1cc(Nc2cc(F)c(S(=O)(=O)Nc3nccs3)cc2F)n(-c2ccccc2)n1 [Compound 267, 2,5-difluoro-4-(3-methyl-1-phenyl-1H-pyrazol-5-ylamino)-N-(thiazol-2-yl)benzenesulfonamide] | < 2000 nM |
| Cc1cc(Nc2ccc(S(=O)(=O)Nc3nccs3)c(C)c2)n(-c2ccccc2)n1 [Compound 268, 2-methyl-4-(3-methyl-1-phenyl-1H-pyrazol-5-ylamino)-N-(thiazol-2-yl)benzenesulfonamide] | 2000 to 10000 nM |
| Cc1cc(Nc2ccc(S(=O)(=O)Nc3nccs3)c(OC(F)(F)F)c2)n(-c2ccccc2)n1 [Compound 270, 4-(3-methyl-1-phenyl-1H-pyrazol-5-ylamino)-N-(thiazol-2-yl)-2-(trifluoromethoxy)benzenesulfonamide] | > 1000 nM |
| Cc1cc(Nc2ccn(Cc3ccc(Cl)cc3)n2)ccc1S(=O)(=O)Nc1nccs1 [Compound 271, 4-(1-(4-chlorobenzyl)-1H-pyrazol-3-ylamino)-2-methyl-N-(thiazol-2-yl)benzenesulfonamide] | 2000 to 10000 nM |
| Cc1cc(Nc2ccc(S(=O)(=O)Nc3nccs3)c(C(F)(F)F)c2)n(-c2ccccc2)n1 [Compound 272, 4-(3-methyl-1-phenyl-1H-pyrazol-5-ylamino)-N-(thiazol-2-yl)-2-(trifluoromethyl)benzenesulfonamide] | > 1000 nM |
| N#Cc1cc(S(=O)(=O)Nc2ncns2)ccc1Nc1nnc(-c2ccccc2)c(O)n1 [Compound 273, 3-cyano-4-(5-hydroxy-6-phenyl-1,2,4-triazin-3-ylamino)-N-(1,2,4-thiadiazol-5-yl)benzenesulfonamide] | > 1000 nM |
| O=S(=O)(Nc1nccs1)c1ccc2c(cnn2Cc2ccc(OC(F)(F)F)cc2)c1 [Compound 274, N-(thiazol-2-yl)-1-(4-(trifluoromethoxy)benzyl)-1H-indazole-5-sulfonamide] | < 2000 nM |
